# Measured values published in patent US20250049970A1, “DLL3 TARGETING PEPTIDES AND CONSTRUCTS THEREOF” (MARIANA ONCOLOGY INC., priority 2023, published 2025).
# *1 amine or outer side, *2 acyl side, *3 side chain or, on linkers, in order; H or OH if unused. Where a SMILES comes first, the peptide text is derived from it. Bridges are numbered along the chain shown (N, C = ends). Side-chain parts run from the residue outwards. [ ]: non-standard residue; d: D form. The star is where a group is joined. X9 = CSCC[C@H](NC(=O)c1ccc(CNC(=O)CN2CCN(CC(=O)O)CCN(CC(=O)O)CCN(CC(=O)O)CC2)cc1)C(=O)N[C@H](C(=O)N[C@@H](CCCCN*)C(=O)O)C(C)C; X7 = O=C(O)CN1CCN(CC(=O)O)CCN(CC(=O)N[C@H]2CC[C@H](CC(=O)*)CC2)CCN(CC(=O)O)CC1; X11 = O=C(O)CN1CCN(CC(=O)O)CCN(CC(=O)NCCCOCCOCCOCCCN*)CCN(CC(=O)O)CC1; Ala(piperidin-4-yl) = O=C([C@H](CC1CCN([*:3])CC1)N[*:1])[*:2]; DOTA = O=C(O)CN1CCN(CC(=O)O)CCN(CC(=O)*)CCN(CC(=O)O)CC1; X2 = O=C(Cc1ccc(I)cc1)NCCOCCOCCOCCOCCOCCOCCOCCOCC(=O)*; Ala(morpholin-4-yl) = N[C@@H](CN1CCOCC1)C(=O)O; NMeW = CN[C@@H](Cc1c[nH]c2ccccc12)C(=O)O; 2Nal = N[C@@H](Cc1ccc2ccccc2c1)C(=O)O; NMeH = CN[C@@H](Cc1c[nH]cn1)C(=O)O; Cba = N[C@@H](CC1CCC1)C(=O)O; Chg = N[C@H](C(=O)O)C1CCCCC1; Suc = O=C(CCC(=O)[*:2])[*:1]; Dab = NCC[C@H](N)C(=O)O; CH2 = C([*:1])[*:2]
# Target: T1, DLL3 (Homo sapiens, UniProt Q9NYJ7)
# T1 sequence (Q9NYJ7 27-618): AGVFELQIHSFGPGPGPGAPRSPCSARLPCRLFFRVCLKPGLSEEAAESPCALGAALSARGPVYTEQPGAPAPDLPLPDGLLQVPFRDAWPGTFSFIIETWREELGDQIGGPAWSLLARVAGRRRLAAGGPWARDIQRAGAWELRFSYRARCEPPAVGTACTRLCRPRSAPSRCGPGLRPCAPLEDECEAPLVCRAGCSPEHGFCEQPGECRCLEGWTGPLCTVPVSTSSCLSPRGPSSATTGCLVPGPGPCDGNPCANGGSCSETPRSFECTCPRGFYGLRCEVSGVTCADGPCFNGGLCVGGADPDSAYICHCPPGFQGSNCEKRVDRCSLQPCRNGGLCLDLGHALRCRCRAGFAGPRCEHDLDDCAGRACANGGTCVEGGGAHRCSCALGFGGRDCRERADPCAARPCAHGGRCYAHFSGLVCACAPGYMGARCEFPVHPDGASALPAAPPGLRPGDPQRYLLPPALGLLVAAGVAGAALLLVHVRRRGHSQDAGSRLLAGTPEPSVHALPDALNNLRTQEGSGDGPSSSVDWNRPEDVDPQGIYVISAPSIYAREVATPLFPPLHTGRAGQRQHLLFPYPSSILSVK
# Assay: SPR KD, biotinylated human DLL3 on streptavidin chip (Table 8)
# Parameters: biotin (biotinylated)
# Details: SPR KD, biotinylated human DLL3 on streptavidin sensor chip, 25° C., 1:1 binding model
# Description: Biotinylated target ligand human DLL3 was immobilized on a streptavidin sensor chip. A reference surface was set up for nonspecific binding and refractive index changes. […] Sensorgram curves were fitted with 1:1 binding model, and affinity and kinetic parameters were obtained using Biacore Insight evaluation 4.0. software.
row,Compound,Kd [nM]
1,CC(=O)N[C@@H](Cc1c[nH]c2ccccc12)C(=O)N[C@H](C(=O)N[C@H](C(=O)N[C@H]1CSSC[C@@H](C(=O)N[C@@H](Cc2c[nH]c3ccccc23)C(=O)N2CCC[C@H]2C(=O)N[C@H](CCCCNC(=O)COCCOCCOCCOCCOCCOCCOCCOCCNC(=O)Cc2ccc(I)cc2)C(N)=O)NC(=O)[C@H](CC(=O)O)NC(=O)[C@H](CCCCNC(=O)CN2CCN(CC(=O)O)CCN(CC(=O)O)CCN(CC(=O)O)CC2)NC(=O)[C@H](Cc2ccc3ccccc3c2)NC(=O)[C@H](CC(N)=O)NC(=O)[C@H](CC2CCNCC2)NC1=O)C1CCCCC1)[C@@H](C)O [compound 420] (Ac-WT[Chg]C[Ala(piperidin-4-yl)]N[2Nal]K(DOTA)DCWP[dK](X2)-NH2; disulfide 4-10),< 1

# Same assay, conditions: biotinylated human DLL3 on streptavidin sensor chip, 25° C., 1:1 binding model; read-out: SPR KD
row,Kd [nM],Compound
1,10 to 100,"CC[C@H](C)[C@H](NC(=O)[C@@H](NC(=O)[C@H](Cc1c[nH]c2ccccc12)NC(=O)[C@H](CCSC)NC(C)=O)[C@@H](C)O)C(=O)N[C@H]1CSSC[C@@H](C(=O)N[C@@H](Cc2c[nH]c3ccccc23)C(=O)N2CCC[C@H]2C(N)=O)NC(=O)[C@H](C)NC(=O)[C@H](Cc2cnc[nH]2)NC(=O)[C@H](Cc2c[nH]c3ccccc23)NC(=O)[C@H](CC(N)=O)NC(=O)[C@H](CC(N)=O)NC1=O [compound 37, Ac-M-W-T-I-C(3)-N-N-W-H-(L-Ala)-C(3)-W-P-CONH2] (Ac-MWTICNNWHACWP-NH2; disulfide 5-11)"
2,< 1,"CC(=O)N[C@@H](Cc1c[nH]c2ccccc12)C(=O)N[C@H](C(=O)N[C@H](C(=O)N[C@H]1CSSC[C@@H](C(=O)N[C@@H](Cc2c[nH]c3ccccc23)C(=O)N2CCC[C@H]2C(N)=O)NC(=O)[C@H](CC(=O)O)NC(=O)[C@H](CCCCNC(=O)C[C@H]2CC[C@H](NC(=O)CN3CCN(CC(=O)O)CCN(CC(=O)O)CCN(CC(=O)O)CC3)CC2)NC(=O)[C@H](Cc2ccc3ccccc3c2)NC(=O)[C@H](CC(N)=O)NC(=O)[C@H](CN2CCOCC2)NC1=O)C1CCCCC1)[C@@H](C)O [compound 380, Ac-W-T-(Chg)-C(3)-[3-(1-morpholinyl)-Ala]-N-(2Nal)-Lys(Chx-DOTA)-D-C(3)-W-P-CONH2] (Ac-WT[Chg]C[Ala(morpholin-4-yl)]N[2Nal]K(X7)DCWP-NH2; disulfide 4-10)"
3,1 to 10,"CC(=O)N[C@@H](Cc1c[nH]c2ccccc12)C(=O)N[C@H](C(=O)N[C@@H](CC1CCC1)C(=O)N[C@H]1CSSC[C@@H](C(=O)N[C@@H](Cc2c[nH]c3ccccc23)C(=O)N2CCC[C@H]2C(N)=O)NC(=O)[C@H](CC(=O)O)NC(=O)[C@H](Cc2cnc[nH]2)NC(=O)[C@H](Cc2c[nH]c3ccccc23)NC(=O)[C@H](CC(N)=O)NC(=O)[C@H](CC(N)=O)NC1=O)[C@@H](C)O [compound 341, Ac-W-T-(CBA)-C(3)-N-N-W-H-D-C(3)-W-P-CONH2] (Ac-WT[Cba]CNNWHDCWP-NH2; disulfide 4-10)"
4,100 to 300,"CC[C@H](C)[C@H](NC(=O)[C@@H](NC(=O)[C@H](Cc1c[nH]c2ccccc12)NC(C)=O)[C@@H](C)O)C(=O)N[C@H]1CSSC[C@@H](C(=O)N[C@@H](Cc2c[nH]c3ccccc23)C(=O)N2CCC[C@H]2C(=O)O)NC(=O)[C@H](CC(=O)O)NC(=O)[C@H](Cc2c[nH]cn2)NC(=O)[C@H](Cc2c[nH]c3ccccc23)N(C)C(=O)[C@H](CC(N)=O)NC(=O)[C@H](CC(N)=O)NC1=O [compound 386, Ac-W-T-I-C(3)-N-N-(NmeW)-H-D-C(3)-W-P-CONH2] (Ac-WTICNN[NMeW]HDCWP-OH; disulfide 4-10)"
5,< 1,"CCC(C)(C)[C@H](NC(=O)[C@@H](NC(=O)[C@H](Cc1c[nH]c2ccccc12)NC(C)=O)[C@@H](C)O)C(=O)N[C@H]1CSSC[C@@H](C(=O)N[C@@H](Cc2c[nH]c3ccccc23)C(=O)N2CCC[C@H]2C(N)=O)NC(=O)[C@H](CC(=O)O)NC(=O)[C@H](CCCCNC(=O)CN2CCN(CC(=O)O)CCN(CC(=O)O)CCN(CC(=O)O)CC2)NC(=O)[C@H](Cc2ccc3ccccc3c2)NC(=O)[C@H](CC(N)=O)NC(=O)C(CN2CCOCC2)NC1=O (single isomer, unassigned) [compound 306, Ac-W-T-(α-tert-amylGly)-C(3)-[3-(1-morpholinyl)-Ala]-N-(2Nal)-Lys(DOTA)-D-C(3)-W-P-CONH2]"
6,< 1,CSCC[C@H](NC(=O)c1ccc(CNC(=O)CN2CCN(CC(=O)O)CCN(CC(=O)O)CCN(CC(=O)O)CC2)cc1)C(=O)N[C@H](C(=O)N[C@@H](CCCCNC(=O)CC[C@@H]1NC(=O)[C@H](Cc2ccc3ccccc3c2)NC(=O)[C@H](CC(N)=O)NC(=O)[C@H](CC2CCNCC2)NC(=O)[C@@H](NC(=O)[C@@H](NC(=O)[C@@H](NC(=O)[C@H](Cc2c[nH]c3ccccc23)NC(C)=O)[C@@H](C)O)C2CCCCC2)CSCSC[C@@H](C(=O)N[C@@H](Cc2c[nH]c3ccccc23)C(=O)N2CCC[C@H]2C(N)=O)NC(=O)[C@H](CC(=O)O)NC1=O)C(=O)O)C(C)C [compound 425] (Ac-WT[Chg]C[Ala(piperidin-4-yl)]N[2Nal]E(X9)DCWP-NH2; linker 4-10 via CH2)
7,< 1,"CC(=O)N[C@@H](Cc1c[nH]c2ccccc12)C(=O)N[C@H](C(=O)N[C@H](C(=O)N[C@H]1CSCSC[C@@H](C(=O)N[C@@H](Cc2c[nH]c3ccccc23)C(=O)N2CCC[C@H]2C(N)=O)NC(=O)[C@H](C)NC(=O)[C@H](CCCCNC(=O)CN2CCN(CC(=O)O)CCN(CC(=O)O)CCN(CC(=O)O)CC2)NC(=O)[C@H](Cc2ccc3ccccc3c2)NC(=O)[C@H](CC(N)=O)NC(=O)[C@H](CC2CCNCC2)NC1=O)C1CCCCC1)[C@@H](C)O [compound 416, Ac-W-T-(Chg)-C(1)-[3-(4-piperidinyl)-Ala]-N-(2Nal)-Lys(DOTA)-(Ala)-C(1)-W-P-CONH2] (Ac-WT[Chg]C[Ala(piperidin-4-yl)]N[2Nal]K(DOTA)ACWP-NH2; linker 4-10 via CH2)"
8,1 to 10,CC[C@H](C)[C@H](NC(=O)[C@@H](NC(=O)[C@H](Cc1c[nH]c2ccccc12)NC(=O)[C@H](CCSC)NC(C)=O)[C@@H](C)O)C(=O)N[C@H]1CSSC[C@@H](C(=O)N[C@@H](Cc2c[nH]c3ccccc23)C(=O)N2CCC[C@H]2C(N)=O)NC(=O)[C@H](CC(=O)O)NC(=O)[C@H](Cc2cnc[nH]2)NC(=O)[C@H](Cc2c[nH]c3ccccc23)NC(=O)[C@H](CC(N)=O)NC(=O)[C@H](CC(N)=O)NC1=O [compound 1] (Ac-MWTICNNWHDCWP-NH2; disulfide 5-11)
9,10 to 100,"CC[C@H](C)[C@H](NC(=O)[C@@H](NC(=O)[C@H](Cc1c[nH]c2ccccc12)NC(C)=O)[C@@H](C)O)C(=O)N[C@H]1CSSC[C@@H](C(=O)N[C@@H](Cc2c[nH]c3ccccc23)C(=O)N2CCC[C@H]2C(N)=O)NC(=O)[C@H](CC(=O)O)NC(=O)[C@H](Cc2cnc[nH]2)N(C)C(=O)[C@H](Cc2c[nH]c3ccccc23)NC(=O)[C@H](CC(N)=O)NC(=O)[C@H](CC(N)=O)NC1=O [compound 387, Ac-W-T-I-C(3)-N-N-W-(NmeH)-D-C(3)-W-P-CONH2] (Ac-WTICNNW[NMeH]DCWP-NH2; disulfide 4-10)"
10,< 1,"CC(=O)N[C@@H](Cc1c[nH]c2ccccc12)C(=O)N[C@H](C(=O)N[C@H](C(=O)N[C@H]1CSSC[C@@H](C(=O)N[C@@H](Cc2c[nH]c3ccccc23)C(=O)N2CCC[C@H]2C(N)=O)NC(=O)[C@H](CC(=O)O)NC(=O)[C@H](CCCCNC(=O)CNC(=O)CNC(=O)CCC(=O)NCCCOCCOCCOCCCNC(=O)CN2CCN(CC(=O)O)CCN(CC(=O)O)CCN(CC(=O)O)CC2)NC(=O)[C@H](Cc2ccc3ccccc3c2)NC(=O)[C@H](CC(N)=O)NC(=O)[C@H](CC2CCNCC2)NC1=O)C1CCCCC1)[C@@H](C)O [compound 406, Ac-W-T-(Chg)-C(3)-[3-(4-piperidinyl)-Ala]-N-(2Nal)-Lys(G-G-TTDS-DOTA)-D-C(3)-W-P-CONH2] (Ac-WT[Chg]C[Ala(piperidin-4-yl)]N[2Nal]K([Gly-Gly-Suc-X11])DCWP-NH2; disulfide 4-10)"
11,100 to 300,CC[C@H](C)[C@H](NC(=O)[C@@H](NC(=O)[C@H](Cc1c[nH]c2ccccc12)NC(C)=O)[C@@H](C)O)C(=O)N[C@H]1CCC(=O)NCC[C@@H](C(=O)N[C@@H](Cc2c[nH]c3ccccc23)C(=O)N2CCC[C@H]2C(N)=O)NC(=O)[C@H](CC(=O)O)NC(=O)[C@H](Cc2c[nH]cn2)NC(=O)[C@H](Cc2c[nH]c3ccccc23)NC(=O)[C@H](CC(N)=O)NC(=O)[C@H](CC(N)=O)NC1=O [compound 71] (Ac-WTIENNWHD[Dab]WP-NH2; lactam 4-10)
12,1 to 10,"CC[C@H](C)[C@H](NC(=O)[C@@H](NC(=O)[C@H](Cc1c[nH]c2ccccc12)NC(C)=O)[C@@H](C)O)C(=O)N[C@H]1CSSC[C@@H](C(=O)N[C@@H](Cc2c[nH]c3ccccc23)C(=O)N2CCC[C@H]2C(N)=O)NC(=O)[C@H](CC(=O)O)NC(=O)[C@H](Cc2c[nH]cn2)NC(=O)[C@H](Cc2ccc3ccccc3c2)NC(=O)[C@H](CCCCNC(=O)CN2CCN(CC(=O)O)CCN(CC(=O)O)CCN(CC(=O)O)CC2)NC(=O)[C@H](CC(N)=O)NC1=O [compound 250, Ac-W-T-I-C(3)-N-Lys(DOTA)-(2Nal)-H-D-C(3)-W-P-CONH2] (Ac-WTICNK(DOTA)[2Nal]HDCWP-NH2; disulfide 4-10)"
